Reference: the supplement of paper PMC10307832

How the values were obtained:
Experiment in all cases: relative viability (nuclei count vs DMSO), 5 days (fraction); higher = more cells survive
[1] = compound: CC1=NN=C(O1)C2=NN=C(C=C2)N3CCC(CC3)OC4=C(C=CC(=C4)F)Cl + O=C(CCCCCCC(=O)Nc1ccccc1)NO [Vorinostat] (partner 1 µM)
Summary of the method: (§1)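 Relative viability is defined as nuclei in treated wells over nuclei in vehicle wells. Duplicate plates were run and medians reported. Lung cancer cell lines in 1536-well plates were dosed by pin tool one day after seeding, with one drug or with a fixed anchor-drug dose plus five library-drug doses (not always all listed) in √10 steps, and nuclei were counted after 5 days.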

[2] = compound: CC1=NN=C(O1)C2=NN=C(C=C2)N3CCC(CC3)OC4=C(C=CC(=C4)F)Cl + Cc1cc(Nc2cc(N3CCN(C)CC3)nc(Sc3ccc(NC(=O)C4CC4)cc3)n2)n[nH]1 [Tozasertib] (partner 0.1 µM)
Summary of the method: as §1

[3] = compound: CC(C)C[C@@H](C(=O)N[C@H](C(=O)OC1CCCC1)c1ccccc1)[C@H](O)C(=O)NO [Tosedostat] + C[C@@H](Oc1cc(-c2cnn(C3CCNCC3)c2)cnc1N)c1c(Cl)ccc(F)c1Cl [Crizotinib] (partner 1 µM)
Summary of the method: as §1

[4] = compound: CC(C)C[C@@H](C(=O)N[C@H](C(=O)OC1CCCC1)c1ccccc1)[C@H](O)C(=O)NO [Tosedostat] + Nc1ncn([C@H]2C[C@H](O)[C@@H](CO)O2)c(=O)n1 [Decitabine] (partner 2 µM)
Summary of the method: as §1

Cell Line | relative viability ([1]; first compound 0.253 µM) | relative viability ([1]; first compound 0.8 µM) | relative viability ([1]; first compound 2.53 µM) | relative viability ([1]; first compound 8 µM) | relative viability ([2]; first compound 0.253 µM) | relative viability ([2]; first compound 0.8 µM) | relative viability ([2]; first compound 2.53 µM) | relative viability ([2]; first compound 8 µM) | relative viability ([3]; first compound 0.02 µM) | relative viability ([3]; first compound 0.06325 µM) | relative viability ([3]; first compound 0.2 µM) | relative viability ([3]; first compound 0.6325 µM) | relative viability ([3]; first compound 2 µM) | relative viability ([4]; first compound 0.02 µM) | relative viability ([4]; first compound 0.06325 µM) | relative viability ([4]; first compound 0.2 µM) | relative viability ([4]; first compound 0.6325 µM) | relative viability ([4]; first compound 2 µM)
HCC-44 | 0.584 | 0.708 | 0.698 | 0.423 | 0.545 | 0.564 | 0.513 | 0.487 | 0.861 | 0.755 | 0.759 | 0.741 | 0.492 | 0.941 | 0.919 | 0.943 | 0.865 | 0.747
HCC-827 | 0.382 | 0.207 | 0.322 | 0.377 | 0.174 | 0.161 | 0.171 | 0.144 | 0.954 | 0.933 | 0.977 | 0.888 | 0.756 | 0.317 | 0.331 | 0.289 | 0.26 | 0.314
NCI-H1623 | – | – | – | – | 0.322 | 0.435 | 0.372 | 0.385 | – | – | – | – | – | – | – | – | – | –
NCI-H441 | 0.424 | 0.384 | 0.302 | 0.382 | 0.457 | 0.388 | 0.423 | 0.419 | 0.648 | 0.761 | 0.496 | 0.335 | 0.401 | 0.226 | 0.253 | 0.239 | 0.198 | 0.244
NCI-H1734 | 0.721 | 0.692 | 0.721 | 0.737 | 0.262 | 0.287 | 0.216 | 0.247 | 0.727 | 0.695 | 0.688 | 0.574 | 0.656 | 0.487 | 0.509 | 0.461 | 0.418 | 0.446
HARA | 0.476 | 0.345 | 0.499 | 0.432 | 0.0993 | 0.0831 | 0.0894 | 0.0804 | 1.12 | 0.912 | 0.991 | 0.997 | 1.14 | 0.583 | 0.583 | 0.427 | 0.442 | 0.457
NCI-H1703 | – | – | – | – | – | – | – | – | 1.15 | 0.643 | 0.548 | 0.38 | 0.597 | – | – | – | – | –
NCI-H1395 | 0.656 | 0.563 | 0.671 | 0.593 | 0.69 | 0.581 | 0.72 | 0.683 | – | – | – | – | – | 0.888 | 0.689 | 0.715 | 0.624 | 0.622
NCI-H1355 | 0.405 | 0.478 | 0.625 | 0.558 | 0.496 | 0.344 | 0.402 | 0.365 | 0.997 | 1.09 | 1.06 | 0.976 | 0.813 | 0.347 | 0.357 | 0.315 | 0.332 | 0.305
LXF-289 | 0.637 | 0.418 | 0.586 | 0.463 | 0.181 | 0.141 | 0.179 | 0.131 | 0.838 | 0.703 | 0.821 | 0.76 | 0.799 | 0.409 | 0.392 | 0.365 | 0.387 | 0.328
NCI-H1563 | – | – | – | – | – | – | – | – | 0.877 | 0.998 | 0.893 | 1.07 | 0.917 | – | – | – | – | –
HCC-78 | 0.425 | 0.48 | 0.393 | 0.381 | 0.376 | 0.319 | 0.266 | 0.288 | 0.298 | 0.337 | 0.324 | 0.371 | 0.391 | 0.634 | 0.706 | 0.732 | 0.75 | 0.658
NCI-H1666 | 0.735 | 0.862 | 0.868 | 0.864 | 0.43 | 0.496 | 0.458 | 0.388 | 0.972 | 1.01 | 1.01 | 0.937 | 1.11 | 0.776 | 0.744 | 0.696 | 0.727 | 0.658
HCC-15 | 0.534 | 0.431 | 0.511 | 0.554 | 0.281 | 0.29 | 0.274 | 0.278 | 0.939 | 0.836 | 0.834 | 0.777 | 0.635 | 0.675 | 0.649 | 0.591 | 0.446 | 0.433
EKVX | 0.439 | 0.381 | 0.442 | 0.463 | 0.258 | 0.15 | 0.196 | 0.196 | 0.763 | 0.842 | 0.921 | 0.807 | 0.789 | 0.37 | 0.34 | 0.292 | 0.313 | 0.332
NCI-H2347 | 0.629 | 0.597 | 0.428 | 0.501 | – | 0.447 | 0.579 | 0.497 | 0.818 | 0.666 | 0.676 | 0.747 | 0.771 | 0.64 | 0.609 | 0.667 | 0.444 | 0.542
LK-2 | 0.352 | 0.256 | 0.291 | 0.295 | 0.171 | 0.176 | 0.176 | 0.134 | 0.218 | 0.225 | 0.232 | 0.249 | 0.215 | 0.305 | 0.306 | 0.237 | 0.262 | 0.272
NCI-H1651 | 0.431 | 0.241 | 0.389 | 0.336 | 0.58 | 0.66 | 0.567 | 0.571 | 0.918 | 0.851 | 0.878 | 0.897 | 0.817 | 0.683 | 0.63 | 0.501 | 0.523 | 0.503
COR-L23 | 0.332 | 0.378 | 0.375 | 0.316 | 0.166 | 0.131 | 0.145 | 0.121 | 0.86 | 0.554 | 0.642 | 0.604 | 0.524 | 0.465 | 0.411 | 0.393 | 0.405 | 0.37
ABC-1 | 0.542 | 0.487 | 0.402 | 0.525 | 0.17 | 0.193 | 0.178 | 0.177 | 1.15 | 0.868 | 1.02 | 0.83 | 0.631 | 1.17 | 1.13 | 1.27 | 1.19 | 1.05
